The test system of one assay is Bacillus anthracis. Nature of the assay: Antimicrobial activity against Bacillus anthracis. The assay is classed as functional.
In the next assay the test system is Plasmodium falciparum. The assay is described as follows: Antiplasmodial activity against Plasmodium falciparum. The class given is functional. As to conditions: read-out: LD50 (the source's name).
In the next assay the test system is Lymphocyte. The assay is described as follows: Immunosuppressive activity in lymphocytes by mixed lymphocyte reaction assay. The assay is classed as functional, cell-based.
The subject of the next assay is Thymocyte. Nature of the assay: Immunosuppressive activity in thymocytes by thymocyte proliferation assay. The assay is classed as functional, cell-based.

We go through three compounds from ChEMBL document CHEMBL1146482, “Natural products from endophytic microorganisms” (J Nat Prod, 2004).

Each structure is given as a SMILES string. ≈ marks a conversion by molar mass, not a printed value.

A word on the MIC: it is the smallest concentration in the dilution series that meets the test's criterion for growth inhibition. A lower MIC goes with inhibition by little substance. In the assay on Bacillus anthracis, `CS[C@H]1SC[C@H]2C(=O)N(C)[C@@H](C(C)C)C(=O)OC[C@@H](NC(=O)c3cnc4ccccc4n3)C(=O)N[C@@H](C)C(=O)N(C)[C@@H]1C(=O)N(C)[C@@H](C(C)C)C(=O)OC[C@@H](NC(=O)c1cnc3ccccc3n1)C(=O)N[C@@H](C)C(=O)N2C` [ECHINOMYCIN] gave an MIC of 1 µg/mL (≈ 0.908 µM). Further, the LC50 with Plasmodium falciparum amounted to 0.007 µg/mL (≈ 0.00636 µM).
In general, IC50 refers to the concentration that inhibits the measured activity by half. Consider `C=C1CC[C@H]2[C@]3(C)C[C@@H](C=C(C)C)O[C@H]3CC[C@]2(C)[C@@H]1Cc1c(O)c(C)c(C)oc1=O` [SUBGLUTINOL A], for which the IC50 in the assay on Lymphocyte and in the assay with Thymocyte was 0.1 µM throughout.
Take `C=C1CC[C@H]2[C@]3(C)C[C@H](C=C(C)C)O[C@H]3CC[C@]2(C)[C@@H]1Cc1c(O)c(C)c(C)oc1=O` [SUBGLUTINOL B]: the half-maximal inhibitory concentration (IC50) in the assay with Lymphocyte and with Thymocyte was 0.1 µM in each case.
